The results in this text go back to patent US20230190844A1, “COMPOSITION AND METHOD FOR TREATING CANCER WITH CANNABINOIDS” (CANNABICS PHARMACEUTICALS INC., priority 2020, published 2023).

One data set relates to SK-CO1 cells. The data set is described as follows: Cell viability at varying CBGA:CBDV ratios, SK-CO1. The following applies: Homo sapiens, SK-CO-1, read-out: % Cells Viability.
Another data set relates to HT-29 colon cancer cells. As to the kind of experiment: CellTiter-Glo (CTG) cell viability, HT-29. It counts as cell-based, human. To be noted: CBDV 23.5 μM, CBGA 25.6 μM, THC-d8 17.5 μM; 48 hours; FIGS. 1A-1B. How it is done: The colon cancer cell line HT-29 was exposed to each of CBDV (at a concentration of 23.5 μM) and CBGA (at a concentration of 25.6 μM) alone, and a combination thereof and to each of CBGA (at a concentration of 25.6 μM) and THC-d8 (at a concentration of 17.5 μM) alone, and a combination thereof at 37° C. for 48 hours. The viability of the tested cells was examined. The following Tables 4 and 5 illustrate the obtained results (shown also graphically at FIGS. 1A and 1B).

For another data set, the system named is CT26 cells. As to the kind of experiment: Cell viability at varying CBGA:CBDV ratios, CT26. The following applies: Mus musculus, CT26, read-out: % Cells Viability.
The next data set deals with HCT116 cells. As to the kind of experiment: CellTiter-Glo (CTG) cell viability, HCT-116. How it is done:
(§1) The colon cancer cell lines RKO, and HCT116 were exposed to various cannabinoid combinations, at 37° C. for 48 h. The viability of the tested cells was examined. Further, synergism was evaluated using the Bliss equation.
(§2) CBDV and CBGA were tested at concentrations of 46.9 μM and 51.2 μM, respectively (shown as X2 in FIGS. 4A-4B). The effect of contacting each cannabinoid on the cells at half the concentration (i.e., 23.4 μM and 25.6 μM for CBDV and CBGA, respectively) was further tested (shown as X1 in FIGS. 4A-4B). Mixtures of CBDV and CBGA each at a X1 concentration were further prepared (“low concentration solutions”). The effect of the low concentration solution on the viability of the cancer cells was tested. The testing of the effect of each solution on the cancer cells was determined by incubating the cells with each cannabinoid solution as well as a standard (control) comprising DMSO only at 37° C. for 48 h and cell viability was measured by CTG viability assay using a Varioskan™ LUX multimode microplate reader.
(§3) FIGS. 7A-7B illustrate the human colon cell lines (HCT116 and RKO) that were incubated with CBGA at a concentration of 35 μM, CBDV at a concentration of 25 μM, Capecitabine at a concentration of 250 μM, and a combination thereof.

For data set [1], the system named is MCF-7 breast cancer cells. The data set is described as follows: CellTiter-Glo (CTG) cell viability, MCF-7. The following applies: CBDV 23.5 μM, CBGA 20 μM, CBDVA 17.5 μM, THC-d8 17.5 μM; 48 hours; FIGS. 3A-3B. It counts as cell-based. How it is done:
The breast cancer cell line MCF-7 was exposed to each of CBDV (at a concentration of 23.5 μM) and CBGA (at a concentration of 20 μM) alone, and to a combination thereof at 37° C. for 48 hours. The viability of the tested cells was examined. The following Table 8 illustrates the obtained results (shown also graphically in FIGS. 3A-3B).
(ATP-based viability assays read luminescence as a measure of living cells.)

The test system of another data set is A549 lung cancer cells. The data set is described as follows: CellTiter-Glo (CTG) cell viability, A549. It counts as cell-based. The following applies: CBDV 23.5 μM, CBGA 25.6 μM, CBDVA 25.6 μM, THC-d8 17.5 μM; 48 hours; FIGS. 2A-2B. How it is done:
The lung cancer cell line A549 was exposed to each of CBDV (at a concentration of 23.5 μM) and CBGA (at a concentration of 25.6 μM) alone, and a combination thereof at 37° C. for 48 hours. The viability of the tested cells was examined. The following Table 6 illustrates the obtained results (shown also graphically in FIGS. 2A-2B).

The subject of another data set is RKO cells. The data set is described as follows: CellTiter-Glo (CTG) cell viability, RKO. How it is done: as §1, §2, §3
Data set [2] relates to cells of human colon cancer biopsy. The data set is described as follows: Cell viability of human colon cancer biopsies. It counts as cell-based. To be noted: CBDV 23.5 μM, CBG 20 μM, alone or combined. How it is done:
The anti-tumor effect of combinations of cannabinoids CBCA, CBDV, CBDVA, THCV and CBGA on human colon cancer biopsies was tested. […] The obtained cell viability inhibition produced synergistic effects.
Table 18 illustrates (shown also graphically at FIG. 5A) the synergistic anti-tumor effect of a combination of the cannabinoids THCV (at a concentration of 24 μM) and CBCA (at a concentration of 14.5 μM) on colon cancer biopsies.
FIG. 6 illustrates graphically the combination of CBGA and CBDV on colon cancer biopsies taken from a patient. The concentration of each component was: CBGA (X2-51.2 μM), CBGA (X1-25.6 μM), CBDV (X2-47 μM), […].

Setting [3] is: Homo sapiens, HCT-116, read-out: % Cells Viability.
Setting [4] is: Homo sapiens, RKO, read-out: % Cells Viability.

Procedure for CT26 cells: (§4) Human colon cell lines (SC-CO1, RKO, and HCT116) and a murine cell line (CT26) were incubated with varying molar ratios between CBGA and CBDV of 1:3.5 to 8.5:1. Cells' viability and corresponding synergy rankings were determined.
Procedure for SK-CO1 cells: as §4

A word on the viability: it is a read-out of living cells in per cent, often relative to untreated cells. As to `C=C(C)[C@H]1CCC(C)=C[C@@H]1c1c(O)cc(CCC)cc1O` [CBDV, 2-((1S,6S)-3-methyl-6-(prop-1-en-2-yl)cyclohex-2-enyl)-5-propylbenzene-1,3-diol], the viability at 5 µM was found to be 104% in the data set on SK-CO1 cells, 108% in the data set on CT26 cells, 113% in the data set on HCT116 cells (setting [3]) and 112% in the data set with RKO cells (setting [4]). Moreover, the viability at 10 µM in the data set on SK-CO1 cells stood at 103%; with CT26 cells, 109%; in the data set with HCT116 cells (setting [3]), 109%; with RKO cells (setting [4]), 108%. Moreover, the viability at 15 µM was 99% with SK-CO1 cells, 113% in the data set with CT26 cells, 101% with HCT116 cells (setting [3]) and 88% in the data set on RKO cells (setting [4]). For the same compound, the viability at 25 µM in the data set on SK-CO1 cells was determined as 99%; with CT26 cells it was 108%; with HCT116 cells (setting [3]), 84%; with RKO cells (setting [4]), 62%. Besides, the viability at 30 µM amounted to 97% in the data set with SK-CO1 cells, 99% in the data set on CT26 cells, 71% in the data set on HCT116 cells (setting [3]) and 53% with RKO cells (setting [4]). The viability at 35 µM with SK-CO1 cells was found to be 96%; in the data set on CT26 cells, 90%; in the data set with HCT116 cells (setting [3]) it was 64%; in the data set on RKO cells (setting [4]), 48%. Also, the “growth inhibition / anti-cancer effect in words” value (with HT-29 colon cancer cells; in data set [1]; with A549 lung cancer cells) was “slight growth inhibition effect” each time. In addition, the viability at 23.4 µM with HCT116 cells (Homo sapiens, HCT-116, 48 h) came to 94%; with RKO cells (Homo sapiens, RKO, 48 h), 92%. Besides, the viability at 46.9 µM with HCT116 cells (Homo sapiens, HCT-116, 48 h) came out at 64%; with RKO cells (Homo sapiens, RKO, 48 h), 38%.

`CCCCCc1cc(O)c(C/C=C(\C)CCC=C(C)C)c(O)c1C(=O)O` [CBGA, 3-[(2E)-3,7-dimethylocta-2,6-dienyl]-2,4-dihydroxy-6-pentylbenzoic acid]: in the data set with SK-CO1 cells, the viability at 10 µM came out at 108%, the viability at 15 µM is 110%, the viability at 25 µM came out at 101% and the viability at 30 µM was 91%. In the data set with SK-CO1 cells, the viability at 35 µM was 76% and the viability at 42.5 µM came out at 52%. In addition, the “growth inhibition / anti-cancer effect in words” value in the data set with HT-29 colon cancer cells was “slight growth inhibition effect”. In the data set on CT26 cells, the viability at 10 µM turned out to be 102%, the viability at 15 µM turned out to be 102%, the viability at 25 µM worked out at 46% and the viability at 30 µM came to 22%. Besides, in the data set on CT26 cells, the viability at 35 µM turned out to be 21% and the viability at 42.5 µM amounted to 11%. Moreover, in the data set on HCT116 cells (Homo sapiens, HCT-116, 48 h), the viability at 25.6 µM was 105% and the viability at 51.2 µM came out at 84%. Also, in the data set on HCT116 cells (setting [3]), the viability at 10 µM is 115%, the viability at 15 µM came out at 112%, the viability at 25 µM came to 104% and the viability at 30 µM was 97%. For the same compound, in the data set on HCT116 cells (setting [3]), the viability at 35 µM is 90% and the viability at 42.5 µM was 72%. In addition, the “growth inhibition / anti-cancer effect in words” value in data set [1] is “slight growth inhibition effect”. Besides, the “growth inhibition / anti-cancer effect in words” value with A549 lung cancer cells is “slight growth inhibition effect”. Further, in the data set with RKO cells (Homo sapiens, RKO, 48 h), the viability at 25.6 µM was determined as 103% and the viability at 51.2 µM was 53%. Further, in the data set with RKO cells (setting [4]), the viability at 10 µM was 119%, the viability at 15 µM worked out at 119%, the viability at 25 µM came to 94% and the viability at 30 µM amounted to 75%. For the same compound, in the data set on RKO cells (setting [4]), the viability at 35 µM turned out to be 59% and the viability at 42.5 µM came out at 41%.

With `CCCCCc1cc(O)c(C/C=C(\C)CCC=C(C)C)c(O)c1` [CBG], the Viability in data set [2] is on record as 84.

Regarding `CCCCCOC(=O)Nc1nc(=O)n([C@@H]2O[C@H](C)[C@@H](O)[C@H]2O)cc1F` [Capecitabine, reference compound], the “anti-cancer / toxicity effect on the cells in words” value with HCT116 cells (FIG. 7A, CBGA 35 μM, CBDV 25 μM, Capecitabine 250 μM) was “no toxicity effect”; in the data set on RKO cells (FIG. 7B, CBGA 35 μM, CBDV 25 μM, Capecitabine 250 μM), “no toxicity effect”.
